{"source": "patent US6528455B1", "about": "“Phenoxy-and thiophenoxy acrylic acid compounds as herbicides” (BASF Aktiengesellschaft, priority 1999, dated 2003)", "test_system": "dicotyledonous harmful plants (ABUTH, AMARE, IPOSS, SOLNI)", "test": "Greenhouse experiment, post-emergence treatment: herbicidal action", "type": "in vivo", "conditions": "application rates of 3.9 and 1.95 g/ha of a.s., 2 to 4 weeks", "description": "The test period extended over 2 to 4 weeks.", "data": [{"substance": "3-(4-Chloro-2-fluoro-5-(1-methoxycarbonyl-1-vinyloxy)phenyl)-1-methyl-6-trifluoromethyl-2,4-(1H, 3H)pyrimidinedione [Example 2]", "values": [{"measurement": "herbicidal effect on dicotyledonous harmful plants compared with Comparative Example A", "value": "at least as good a herbicidal effect"}]}]}
